Patent US7745651B2, “Cationic lipids and methods of use” (Protiva Biotherapeutics, Inc., priority 2004, dated 2010)

Key:
[1] = Nucleic acid encapsulation in SNALP, RiboGreen fluorescence assay; assay type: physicochemical; conditions: SNALP DSPC:Chol:PEG-C-DMA:Cationic Lipid 20:48:2:30 molar percent, siRNA; mean of 3 experiments, error is standard deviation
Experimental: (§1) SNALP Preparation: SNALP with a lipid composition of DSPC:Chol:PEG-C-DMA:Cationic Lipid (20:48:2:30 molar percent) were prepared using the spontaneous vesicle formation by ethanol dilution method [Jeffs et al., Pharm. Res. In Press (2005)]. The sample's were diafiltered against 100 mL of PBS (20 wash volumes) using a cross flow ultrafiltration cartridge (Amersham Biosciences, Piscataway, N.J.) and sterile filtered through Acrodisc 0.2 μm Posidyne filters (Pall Corp., Ann Arbor, Mich.). The siRNA concentration of final samples was determined using the RiboGreen assay and a siRNA standard curve. Particle size and polydispersity was determined using a Malvern Instruments Zetasizer 3000HSA (Malvern, UK). Nucleic acid encapsulation was determined using a RiboGreen assay, comparing fluorescence in the presence and absence of Triton X-100. RiboGreen fluorescence was measured using a Varian Eclipse Spectrofluorometer (Varian Inc) with λex=500 nm, λem=525 nm.
(§2) This example sets forth the physical properties of the SNALP formulations described herein. SNALP containing the various cationic lipids were prepared as described and encapsulated RNA and particle size assessed (Table 1 below). […] Polydispersity of all formulations was low, indicating a narrow distribution of particle size. RNA encapsulation in the final particles was 84-85% of the total.
(§3) Percentage Encapsulation was determined using the RiboGreen fluorescence assay to measure the amount of encapsulated nucleic acid relative to the total nucleic acid present. Particle diameter and polydispersity was measured using a Malvern Zetasizer. Values are the mean of 3 separate experiments, the error is standard deviation.

[2] = SNALP particle diameter and polydispersity, Malvern Zetasizer; assay type: physicochemical; conditions: SNALP DSPC:Chol:PEG-C-DMA:Cationic Lipid 20:48:2:30 molar percent; mean of 3 experiments, error is standard deviation
Experimental: as §1, §2, §3

[3] = test system: luciferase expression in Neuro2A-G cells (Neuro2A cells stably transfected to express luciferase); assay: In vitro transfection: luciferase gene silencing by SNALP encapsulating anti-luciferase siRNA; assay type: cell-based; conditions: for luciferase expression relative to untreated control: after 48 hours
Experimental: In vitro Transfection: Cells were cultured in MEM (Invitrogen) containing 10% fetal bovine serum (FBS) (CanSera) and 0.25 mg/mL G418 (Invitrogen). Neuro2A-G cells (Neuro2A cells stably transfected to express luciferase [R. E. Kingston. in Current Protocols in Molecular Biology, Vol. 2, pp. 9.1.4-9.1.9, John Wiley & Sons, Inc. (1997)]) were plated at a concentration of 4×10^4 cells per well in 24-well plates and grown overnight. Cells were treated with SNALP at doses of 0.0625-1.0 μg/mL nucleic acid (AntiLuc Active or Mismatch Control) and incubated for 48 hours at 37° C. and 5% CO2. Cells were then washed with PBS and lysed with 200 μL 250 mM sodium phosphate containing 0.1% Triton X-100. The luciferase activity for each well was determined using Luciferase Reagent (Promega) and a standard luciferase protein (Roche). The luminescence for each was measured using a Berthold MicroLumatPlus LB96V plate luminometer. The resulting luciferase activity was then normalized for the amount of protein using the Micro BCA assay kit (Pierce). Luciferase knockdown relative to a control was then determined for each system.
This example describes experiments comparing expression of nucleic acids following in vitro transfection of Neuro2A cells with SNALP comprising: (1) DODAC, DODMA, or DLinDMA; (2) PEG-C-DMA; and (3) an siRNA duplex directed against luciferase encapsulated in the SNALP (i.e., siRNA comprising the following sequence: […] (SEQ ID NO:1) and targeting the DNA sequence complementary to: […] (SEQ ID NO:3)). Neuro2A cells were stably transfected with a plasmid encoding luciferase under the control of the CMV promoter (pLO55). The stably transfected cells were then transfected with SNALP comprising: 15, 20, 25, 30, 35, or 40% of DODAC, DODMA, or DLinDMA; 2% PEG-C-DMA, and an siRNA duplex directed against luciferase encapsulated in the SNALP. Luciferase protein expression was measured 48 hours after transfection with SNALP.
The ability of SNALP containing each of the four cationic lipids (i.e., DSDMA, DODMA, DLinDMA, and DLenDMA) to effect gene silencing in stably transfected Neuro2A cells was evaluated. Neuro2A cells stably transfected to express the luciferase were treated with SNALP containing anti-luciferase siRNA for 48 hours. Gene-silencing efficiency was evaluated by comparing the remaining luciferase activity in these cells to that remaining in cells treated with control SNALP containing mismatch siRNA.

[4] = TNS assay, apparent pKa of cationic lipid incorporated in SNALP; conditions: TNS fluorescence, pH varied from 4.5 to 9.5
Experimental: TNS Assay: 20 μM of SNALP lipid and 6 μM of TNS were mixed in a fluorescence cuvette in 2 mL of 20 mM sodium phosphate, 25 mM citrate, 20 mM ammonium acetate and 150 mM NaCl, at a pH that was varied from 4.5 to 9.5. Fluorescence was determined at each pH using a Varian Eclipse Spectrofluorometer (Varian Inc) with settings of λex=322 nm, λem=431 nm. Fluorescence for each system at the various pH was then normalized to the value at pH 4.5. The pKa values are the point at which 50% of the molecules present are charged. By assuming that minimum fluorescence represents zero charge, and maximum fluorescence represents 100% charge, pKa can be estimated by measuring the pH at the point exactly half way between the values of minimum and maximum charge.
TNS is electrostatically attracted to positively charged membranes. Subsequent adsorption to the lipid membrane results in the immediate environment of the TNS becoming more lipophilic, removing the water molecules that otherwise quench TNS fluorescence. Since TNS is more readily absorbed by positively charged membranes, TNS fluorescence is an indicator of positive membrane surface charge. The surface pKa values of each SNALP formulation were determined by varying the local pH in the presence of TNS.

[5] = SNALP with anti-luciferase siRNA

Structure (SMILES) | % Encapsulation [1] [%] | Diameter (nm) [2] [nm] | Polydispersity [2] | knockdown in gene expression (luciferase) versus control SNALP containing mismatch siRNA ([3]; Neuro2A cells stably expressing luciferase, SNALP with anti-luciferase siRNA, 48 hours) [%] | reduction of luciferase expression compared with SNALP comprising DODAC or DODMA ([3]; SNALP with 30% cationic lipid, 2% PEG-C-DMA, anti-luciferase siRNA, 48 hours after transfection) | luciferase expression relative to untreated control [3, 5] [%] | apparent (surface) pKa of cationic lipid in SNALP [4]
CCCCC/C=C\C/C=C\CCCCCCCCOCC(CN(C)C)OCCCCCCCC/C=C\C/C=C\CCCCC (centres unmarked) [DLinDMA, 1,2-DiLinoleyloxy-N,N-dimethylaminopropane] | 84 ± 3 | 140 ± 6 | 0.11 ± 0.02 | 80 | more effective in reducing luciferase expression | 21 | –
CCCCCCCCCCCCCCCCCC[N+](C)(C)CCCCCCCCCCCCCCCCCC [DODMA, dioctadecyldimethylammonium] | 84 ± 1 | 137 ± 4 | 0.12 ± 0.01 | – | – | 54 | 7.0
